Values of other authors as cited in patent US20160128943A1, “CONTROLLED RELEASE CAFFEINE DOSAGE FORMS” (priority 2013, published 2016).

What was measured:
central nervous system = conditions: after absorption

Structure (SMILES): Cn1c(=O)c2c(ncn2C)n(C)c1=O [caffeine]
- time to peak levels in the circulation of the bloodstream (after consumption): fifteen and forty-five
- average half-life (average person, after ingestion): three and one half
- time to maximum effect of central nervous system stimulation (central nervous system): thirty and sixty
